The values below come from ChEMBL document CHEMBL1201862, “PubChem BioAssay data set” (2004).

Activity calls are given as the source filed them.

In general, IC50 refers to the point on the concentration scale where inhibition reaches its midpoint. As usually defined, the AC50 is the midpoint of the concentration-response curve, whichever way the signal moves. A word on the EC50: it is the concentration giving half of the maximal effect. By Ki is commonly meant a measure of affinity in units of concentration, obtained from inhibition or displacement. As a reminder, the pKi is the negative decadic logarithm of the Ki, by convention in mol/L. Low readings indicate a high Ki, high ones a low Ki.

In test [1] the target is T1, Dual specificity protein phosphatase 6 (Rattus norvegicus, UniProt Q64346).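 Further: in vitro confirmatory secondary MKP-3 assay designed to detect irreversible or slow-binding inhibitors; recombinant His-tagged rat MKP-3 acting on the substrate OMFP; inhibitor potency from reduced phosphatase rate.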
T1 sequence (Q64346 whole entry): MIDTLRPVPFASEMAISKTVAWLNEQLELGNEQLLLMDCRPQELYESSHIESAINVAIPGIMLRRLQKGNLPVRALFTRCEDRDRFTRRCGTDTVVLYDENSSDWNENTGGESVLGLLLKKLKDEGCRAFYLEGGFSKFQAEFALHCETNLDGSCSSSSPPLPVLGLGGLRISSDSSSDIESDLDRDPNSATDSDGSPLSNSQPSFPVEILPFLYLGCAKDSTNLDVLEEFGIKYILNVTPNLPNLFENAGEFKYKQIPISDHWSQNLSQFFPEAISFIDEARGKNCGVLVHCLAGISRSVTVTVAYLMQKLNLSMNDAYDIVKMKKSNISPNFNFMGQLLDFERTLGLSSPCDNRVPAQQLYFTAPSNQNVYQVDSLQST

The target of a further test is ORF 73 (Human herpesvirus 8, UniProt O40947). The test is described as follows: inhibitors of C-LANA binding to LBS DNA, dose response, biochemical, fluorescence polarization, cherry-picked samples (AID 504725).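 Further: fluorescence polarization of a labeled DNA duplex reporting LANA DNA binding; potency is for inhibitors that block LANA binding to the DNA.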 Also on record: species or system Human gammaherpesvirus 8.
Test [2] has as its target T2, Sentrin-specific protease 7 (Homo sapiens, UniProt Q9BQF6).
T2 sequence (Q9BQF6 whole entry): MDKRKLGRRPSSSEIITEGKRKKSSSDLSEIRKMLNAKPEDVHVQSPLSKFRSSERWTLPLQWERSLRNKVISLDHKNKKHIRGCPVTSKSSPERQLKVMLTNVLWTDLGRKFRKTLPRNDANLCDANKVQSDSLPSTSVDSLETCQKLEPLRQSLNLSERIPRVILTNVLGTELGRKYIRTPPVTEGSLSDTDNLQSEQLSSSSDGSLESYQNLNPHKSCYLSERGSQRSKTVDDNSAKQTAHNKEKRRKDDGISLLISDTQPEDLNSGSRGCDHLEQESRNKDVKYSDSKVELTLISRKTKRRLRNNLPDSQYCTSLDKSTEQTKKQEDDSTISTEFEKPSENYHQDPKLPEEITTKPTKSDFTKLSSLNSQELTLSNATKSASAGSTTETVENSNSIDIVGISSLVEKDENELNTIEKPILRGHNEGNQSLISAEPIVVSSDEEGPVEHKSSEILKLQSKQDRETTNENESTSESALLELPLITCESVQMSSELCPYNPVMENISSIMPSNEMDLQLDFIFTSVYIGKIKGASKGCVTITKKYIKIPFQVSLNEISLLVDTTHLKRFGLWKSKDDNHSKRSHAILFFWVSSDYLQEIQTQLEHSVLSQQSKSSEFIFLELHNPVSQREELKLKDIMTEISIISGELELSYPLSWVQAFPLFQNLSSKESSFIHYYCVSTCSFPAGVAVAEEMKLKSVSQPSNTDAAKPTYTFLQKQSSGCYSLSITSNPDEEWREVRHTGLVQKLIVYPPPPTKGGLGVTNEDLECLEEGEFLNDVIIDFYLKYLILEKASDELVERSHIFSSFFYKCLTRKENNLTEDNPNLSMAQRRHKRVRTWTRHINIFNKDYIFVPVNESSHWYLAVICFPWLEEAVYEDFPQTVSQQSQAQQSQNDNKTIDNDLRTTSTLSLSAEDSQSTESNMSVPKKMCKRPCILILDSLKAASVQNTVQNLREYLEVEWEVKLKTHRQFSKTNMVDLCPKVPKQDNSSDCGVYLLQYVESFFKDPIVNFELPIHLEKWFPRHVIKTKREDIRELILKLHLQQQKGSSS
The test is described as follows: SENP7 protease inhibitors, SAR follow-up, biochemical, luminescence (AID 504497). Format: functional.

Test [3] can be described thus: Luminescence Cell-Based Dose Retest to Confirm Inhibitors of Cancer Stem Cells. [Related pubchem assays (depositor defined):AID2717, AID2721]. Format: functional, Homo sapiens. The note with it: Homo sapiens.
For test [4], the target named is MAP/microtubule affinity-regulating kinase 3 (Homo sapiens, UniProt P27448). Format: functional.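 Further: MARK3 affinity measured as one member of a kinome panel.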
Sequence of MAP/microtubule affinity-regulating kinase 3 (P27448 whole entry): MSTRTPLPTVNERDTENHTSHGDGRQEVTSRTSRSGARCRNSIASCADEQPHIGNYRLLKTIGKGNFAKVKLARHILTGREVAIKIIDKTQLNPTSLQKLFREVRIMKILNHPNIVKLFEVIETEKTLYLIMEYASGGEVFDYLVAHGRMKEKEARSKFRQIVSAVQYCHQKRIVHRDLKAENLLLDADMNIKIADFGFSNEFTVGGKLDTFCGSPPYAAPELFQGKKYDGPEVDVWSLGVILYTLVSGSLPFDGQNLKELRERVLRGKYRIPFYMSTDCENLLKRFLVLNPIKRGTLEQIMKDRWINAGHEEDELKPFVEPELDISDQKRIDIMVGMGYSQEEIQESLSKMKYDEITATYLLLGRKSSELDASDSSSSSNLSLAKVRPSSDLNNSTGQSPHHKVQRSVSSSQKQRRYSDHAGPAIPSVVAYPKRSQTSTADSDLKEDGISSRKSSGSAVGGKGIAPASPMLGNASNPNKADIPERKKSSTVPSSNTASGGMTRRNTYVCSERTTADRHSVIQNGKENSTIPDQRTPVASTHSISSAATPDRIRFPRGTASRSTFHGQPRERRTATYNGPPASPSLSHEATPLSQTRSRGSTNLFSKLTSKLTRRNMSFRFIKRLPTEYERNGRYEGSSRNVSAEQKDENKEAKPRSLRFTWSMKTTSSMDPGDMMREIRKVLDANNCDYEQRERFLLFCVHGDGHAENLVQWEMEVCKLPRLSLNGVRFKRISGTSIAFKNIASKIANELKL
For another test, the target named is Misshapen-like kinase 1 (Homo sapiens, UniProt Q8N4C8). Format: functional.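 Further: kinome panel screen with MINK as the panel member.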
The target in test [5] is Tyrosine-protein kinase Fer (Homo sapiens, UniProt P16591). Format: functional.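 Further: FER tested as one member of a kinome panel.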
In a further test the target is Aurora kinase A (Homo sapiens, UniProt O14965). Format: functional.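 Further: value from the Navigating the Kinome kinase panel profiling, panel entry STK6.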
Sequence of Aurora kinase A (O14965 whole entry): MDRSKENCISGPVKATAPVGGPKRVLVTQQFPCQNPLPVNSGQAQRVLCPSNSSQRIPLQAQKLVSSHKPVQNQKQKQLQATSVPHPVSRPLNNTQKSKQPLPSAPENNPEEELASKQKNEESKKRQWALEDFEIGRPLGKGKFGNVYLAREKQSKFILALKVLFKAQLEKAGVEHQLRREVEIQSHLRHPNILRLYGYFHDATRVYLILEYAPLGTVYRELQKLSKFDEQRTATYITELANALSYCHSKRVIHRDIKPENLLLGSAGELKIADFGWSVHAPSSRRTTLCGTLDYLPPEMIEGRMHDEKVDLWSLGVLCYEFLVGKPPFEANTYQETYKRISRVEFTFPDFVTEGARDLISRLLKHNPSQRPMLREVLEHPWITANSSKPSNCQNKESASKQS
The target in test [6] is Tyrosine-protein kinase FRK (Homo sapiens, UniProt P42685). Format: functional.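 Further: FRK tested as one member of a kinome panel.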
The target of test [7] is Tyrosine-protein kinase ABL1 (Homo sapiens, UniProt P00519). Format: functional.
The target in test [8] is Serine/threonine-protein kinase PAK 4 (Homo sapiens, UniProt O96013). Format: functional.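 Further: value obtained within a kinome profiling panel in which PAK4 was one of the panel members.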
In test [9] the target is Vascular endothelial growth factor receptor 1 (Homo sapiens, UniProt P17948). Format: functional.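 Further: measured within a kinome-wide profiling panel, FLT1 as the panel member.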
The target of test [10] is RAC-gamma serine/threonine-protein kinase (Homo sapiens, UniProt Q9Y243). Format: functional.
Sequence of RAC-gamma serine/threonine-protein kinase (Q9Y243 whole entry): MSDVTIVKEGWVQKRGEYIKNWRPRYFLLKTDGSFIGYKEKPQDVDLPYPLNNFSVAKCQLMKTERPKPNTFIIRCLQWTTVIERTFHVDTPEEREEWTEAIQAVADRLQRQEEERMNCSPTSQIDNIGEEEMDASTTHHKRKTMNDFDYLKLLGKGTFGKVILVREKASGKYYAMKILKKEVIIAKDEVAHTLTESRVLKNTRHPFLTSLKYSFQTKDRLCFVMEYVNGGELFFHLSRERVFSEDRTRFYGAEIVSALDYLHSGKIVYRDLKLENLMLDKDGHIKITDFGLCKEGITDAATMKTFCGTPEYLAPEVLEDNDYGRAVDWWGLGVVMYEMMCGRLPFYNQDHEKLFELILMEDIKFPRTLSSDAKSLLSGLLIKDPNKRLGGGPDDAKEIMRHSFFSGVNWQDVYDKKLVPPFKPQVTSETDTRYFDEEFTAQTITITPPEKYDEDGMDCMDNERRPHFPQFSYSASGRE
For test [11], the target named is Mitogen-activated protein kinase 8 (Homo sapiens, UniProt P45983). Format: functional.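 Further: value comes from one member of a kinome-wide kinase profiling panel.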
Test [12] concerns the target ALK tyrosine kinase receptor (Homo sapiens, UniProt Q9UM73). Format: functional.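 Further: ALK tested as one member of a kinase panel screen.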
Test [13] concerns the target Tyrosine-protein kinase JAK3 (Homo sapiens, UniProt P52333). Format: functional.
For test [14], the target named is Casein kinase II subunit alpha (Homo sapiens, UniProt P68400). Format: functional.
Test [15] addresses Receptor tyrosine-protein kinase erbB-2 (Homo sapiens, UniProt P04626). The test is described as follows: Navigating the Kinome. Panel member name: ERBB2. Format: functional.
The target in test [16] is MAP kinase-activated protein kinase 2 (Homo sapiens, UniProt P49137). Format: functional.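 Further: measured as one member of a kinome-wide kinase panel.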
Test [17] deals with Serine/threonine-protein kinase Nek2 (Homo sapiens, UniProt P51955). Format: functional.
Test [18] concerns the target Tyrosine-protein kinase Lck (Homo sapiens, UniProt P06239). Format: functional.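 Further: lck was assayed as one member of a kinase panel.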
Test [19] addresses Tyrosine-protein kinase receptor TYRO3 (Homo sapiens, UniProt Q06418). Format: functional.
Test [20] addresses MAP kinase-interacting serine/threonine-protein kinase 2 (Homo sapiens, UniProt Q9HBH9). Format: functional.
Test [21] has as its target Tyrosine-protein kinase BTK (Homo sapiens, UniProt Q06187). Format: functional.
The target of test [22] is cAMP-dependent protein kinase catalytic subunit PRKX (Homo sapiens, UniProt P51817). Format: functional.
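Wherever EC50 is given: HEK293 cells transfected with hcDAF12 and a DAF12 luciferase reporter; potency of agonists activating the hcDAF12 luciferase reporter.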

Sequence of ALK tyrosine kinase receptor (Q9UM73 whole entry): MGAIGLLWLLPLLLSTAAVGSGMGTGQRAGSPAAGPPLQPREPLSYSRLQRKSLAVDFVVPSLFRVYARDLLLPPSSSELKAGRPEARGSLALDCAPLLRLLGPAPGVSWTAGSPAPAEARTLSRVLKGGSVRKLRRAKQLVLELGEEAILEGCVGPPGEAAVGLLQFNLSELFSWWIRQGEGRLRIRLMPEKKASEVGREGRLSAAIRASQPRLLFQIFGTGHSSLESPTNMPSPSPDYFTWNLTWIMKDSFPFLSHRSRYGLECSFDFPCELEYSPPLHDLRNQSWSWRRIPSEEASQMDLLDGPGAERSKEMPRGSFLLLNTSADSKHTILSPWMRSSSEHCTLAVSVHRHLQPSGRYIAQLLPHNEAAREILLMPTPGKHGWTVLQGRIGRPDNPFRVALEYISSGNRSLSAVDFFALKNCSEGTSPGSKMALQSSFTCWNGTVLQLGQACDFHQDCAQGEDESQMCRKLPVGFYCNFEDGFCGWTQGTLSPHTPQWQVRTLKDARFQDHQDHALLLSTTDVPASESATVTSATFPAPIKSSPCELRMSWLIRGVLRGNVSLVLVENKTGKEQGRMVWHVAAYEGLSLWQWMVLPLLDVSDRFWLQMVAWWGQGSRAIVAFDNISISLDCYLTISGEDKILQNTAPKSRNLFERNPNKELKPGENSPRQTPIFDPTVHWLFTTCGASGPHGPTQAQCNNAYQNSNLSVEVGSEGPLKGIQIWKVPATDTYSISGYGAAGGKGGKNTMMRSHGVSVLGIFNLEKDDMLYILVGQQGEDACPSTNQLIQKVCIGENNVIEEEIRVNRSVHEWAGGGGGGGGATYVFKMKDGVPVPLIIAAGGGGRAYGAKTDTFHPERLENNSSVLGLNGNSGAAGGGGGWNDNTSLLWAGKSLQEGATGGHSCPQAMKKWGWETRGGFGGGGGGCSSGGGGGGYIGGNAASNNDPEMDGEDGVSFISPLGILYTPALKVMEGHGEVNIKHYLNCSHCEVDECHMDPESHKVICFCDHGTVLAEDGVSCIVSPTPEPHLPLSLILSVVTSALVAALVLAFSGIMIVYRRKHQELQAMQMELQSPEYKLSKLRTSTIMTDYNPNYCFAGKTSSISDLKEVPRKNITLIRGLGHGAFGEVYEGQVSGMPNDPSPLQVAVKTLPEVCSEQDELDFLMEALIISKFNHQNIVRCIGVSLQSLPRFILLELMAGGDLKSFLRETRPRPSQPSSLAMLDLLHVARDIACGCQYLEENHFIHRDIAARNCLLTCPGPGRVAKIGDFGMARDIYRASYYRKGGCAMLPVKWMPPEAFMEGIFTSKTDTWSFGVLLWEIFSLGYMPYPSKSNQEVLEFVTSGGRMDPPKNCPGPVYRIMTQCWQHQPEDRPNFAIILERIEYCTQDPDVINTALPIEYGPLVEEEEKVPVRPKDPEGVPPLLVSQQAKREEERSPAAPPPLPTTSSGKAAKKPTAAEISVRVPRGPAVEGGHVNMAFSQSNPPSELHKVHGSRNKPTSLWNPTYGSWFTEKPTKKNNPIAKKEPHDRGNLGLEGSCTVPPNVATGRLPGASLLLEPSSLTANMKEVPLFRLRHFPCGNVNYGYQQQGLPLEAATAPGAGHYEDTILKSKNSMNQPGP
Sequence of MAP kinase-interacting serine/threonine-protein kinase 2 (Q9HBH9 whole entry): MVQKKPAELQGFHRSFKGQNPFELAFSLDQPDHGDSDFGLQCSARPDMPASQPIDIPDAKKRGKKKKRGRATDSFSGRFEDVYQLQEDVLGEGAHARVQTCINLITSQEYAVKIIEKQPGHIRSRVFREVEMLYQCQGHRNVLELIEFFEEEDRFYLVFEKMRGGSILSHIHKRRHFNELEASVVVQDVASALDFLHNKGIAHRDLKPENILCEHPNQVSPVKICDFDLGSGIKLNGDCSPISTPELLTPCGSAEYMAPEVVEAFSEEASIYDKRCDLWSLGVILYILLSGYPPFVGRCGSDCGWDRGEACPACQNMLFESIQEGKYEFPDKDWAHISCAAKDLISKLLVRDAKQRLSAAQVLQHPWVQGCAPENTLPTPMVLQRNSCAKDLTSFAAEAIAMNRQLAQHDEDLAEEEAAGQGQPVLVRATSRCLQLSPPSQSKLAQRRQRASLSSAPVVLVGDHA
Sequence of Receptor tyrosine-protein kinase erbB-2 (P04626 whole entry): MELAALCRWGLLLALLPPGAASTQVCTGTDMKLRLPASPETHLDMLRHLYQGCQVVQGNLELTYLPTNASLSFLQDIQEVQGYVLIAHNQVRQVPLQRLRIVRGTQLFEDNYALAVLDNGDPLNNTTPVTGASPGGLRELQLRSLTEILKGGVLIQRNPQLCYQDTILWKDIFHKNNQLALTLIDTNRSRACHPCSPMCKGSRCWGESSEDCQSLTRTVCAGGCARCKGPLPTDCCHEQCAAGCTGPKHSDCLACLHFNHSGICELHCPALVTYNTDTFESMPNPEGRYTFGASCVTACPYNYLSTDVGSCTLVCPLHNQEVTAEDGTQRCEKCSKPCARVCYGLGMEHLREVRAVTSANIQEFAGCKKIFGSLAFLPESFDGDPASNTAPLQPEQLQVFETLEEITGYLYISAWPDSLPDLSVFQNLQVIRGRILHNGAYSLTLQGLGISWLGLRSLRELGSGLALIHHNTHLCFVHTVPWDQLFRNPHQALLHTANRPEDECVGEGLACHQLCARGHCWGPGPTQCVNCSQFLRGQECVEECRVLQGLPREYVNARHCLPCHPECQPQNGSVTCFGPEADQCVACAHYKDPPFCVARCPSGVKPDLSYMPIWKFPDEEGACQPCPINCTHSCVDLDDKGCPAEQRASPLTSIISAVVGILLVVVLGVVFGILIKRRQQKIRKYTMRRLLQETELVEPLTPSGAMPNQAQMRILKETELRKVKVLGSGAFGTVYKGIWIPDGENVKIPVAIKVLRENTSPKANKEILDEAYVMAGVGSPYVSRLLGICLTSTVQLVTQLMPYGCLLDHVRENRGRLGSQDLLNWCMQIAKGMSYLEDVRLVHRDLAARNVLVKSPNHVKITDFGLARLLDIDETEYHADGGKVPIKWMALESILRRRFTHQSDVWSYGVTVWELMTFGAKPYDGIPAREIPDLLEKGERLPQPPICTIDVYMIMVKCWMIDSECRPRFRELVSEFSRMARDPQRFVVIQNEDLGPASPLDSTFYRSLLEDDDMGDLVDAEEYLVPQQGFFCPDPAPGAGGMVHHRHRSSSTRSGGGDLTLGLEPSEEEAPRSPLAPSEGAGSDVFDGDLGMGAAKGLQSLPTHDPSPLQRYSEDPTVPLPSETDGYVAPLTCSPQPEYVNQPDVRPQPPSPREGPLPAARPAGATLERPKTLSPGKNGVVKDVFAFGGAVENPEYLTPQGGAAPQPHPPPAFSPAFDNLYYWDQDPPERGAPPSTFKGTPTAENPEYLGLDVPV

On to `O=C(O)C1Nc2c(O)cc(Cl)c([N+](=O)[O-])c2C2C=CCC12` (configuration not stated), for which the IC50 in [1] is 36800 nM (active). For the same compound, at ORF 73, the half-maximal activity concentration (AC50) was 5020 nM (active).
For `Clc1ccc2nc(-c3ccc(Br)s3)cn2c1`, the EC50 in the test “cells” is > 67500 nM (inactive).
As for `O=C(CCc1ccccc1)NNc1cc(N2CCCCC2)nc(N2CCCCC2)n1`, in test [2], the concentration for half-maximal inhibition (IC50) was 57900 nM (active).
With `Oc1ccc(N=Nc2c(O)ccc3ccccc23)cc1`, in test [3], the concentration at half-maximal activity (AC50) is 2380 nM (active).
On to `Cc1n[nH]c2ccc(-c3cncc(OCC(N)Cc4cccc(Cl)c4)c3)cc12` (configuration not stated), for which the inhibition constant (Ki) in test [4] was 251 nM (active); on Misshapen-like kinase 1, 25.1 nM (active); in test [5], > 1580 nM (inactive); at Aurora kinase A it was 631 nM (active); in [6], > 2510 nM (inactive); in test [7], > 631 nM (inactive). The Ki was 31.6 nM (active) in test [8]; > 398 nM (inactive) in test [9]; 5.01 nM (active) in [10]; 2510 nM (active) in [11]; > 1260 nM (inactive) in test [12]; 794 nM (active) in test [13]. Besides, the inhibitory constant (Ki) is 3980 nM (active) in test [14]; > 1580 nM (inactive) in [15]; 631 nM (active) in test [16]; > 10000 nM (inactive) in [17]; > 2510 nM (inactive) in test [18]; > 2000 nM (inactive) in [19]. For the same compound, the results for the inhibition constant Ki in test [20], in test [21] and in [22] were 316 nM (active), > 1260 nM (inactive) and 1 nM (active), respectively. For the same compound, the pKi in test [10] is reported as 8.3.
